The source made the active and inactive calls.
Experiments:
Assay type in all cases: functional, organism-based
[1] = system: Candida albicans; assay: Antifungal activity against Candida albicans DSM 1665 assessed as inhibition of fungal growth incubated for overnight by serial dilution assay
[2] = system: Mucor hiemalis; assay: Antifungal activity against Mucor hiemalis DSM 2656 assessed as inhibition of fungal growth incubated for overnight by serial dilution assay
[3] = system: Rhodotorula glutinis; assay: Antifungal activity against Rhodotorula glutinis DSM 10134 assessed as inhibition of fungal growth incubated for overnight by serial dilution assay
[4] = system: Schizosaccharomyces pombe; assay: Antifungal activity against Schizosaccharomyces pombe DSM 70572 assessed as inhibition of fungal growth incubated for overnight by serial dilution assay
[5] = system: Wickerhamomyces anomalus; assay: Antifungal activity against Pichia anomala DSM 6766 assessed as inhibition of fungal growth incubated for overnight by serial dilution assay
[6] = system: Escherichia coli; assay: Antibacterial activity against Escherichia coli DSM 1116 assessed as inhibition of bacterial growth incubated for overnight by serial dilution assay
[7] = system: Mycolicibacterium smegmatis; assay: Antibacterial activity against Mycobacterium smegmatis ATCC 700084 assessed as inhibition of bacterial growth incubated for overnight by serial dilution assay
[8] = system: Pseudomonas aeruginosa; assay: Antibacterial activity against Pseudomonas aeruginosa DSM PA14 assessed as inhibition of bacterial growth incubated for overnight by serial dilution assay
[9] = system: Chromobacterium violaceum; assay: Antibacterial activity against Chromobacterium violaceum DSM 30191 assessed as inhibition of bacterial growth incubated for overnight by serial dilution assay
[10] = system: Acinetobacter baumannii; assay: Antibacterial activity against Acinetobacter baumannii […] DSM 30008 assessed as inhibition of bacterial growth incubated for overnight by serial dilution assay
[11] = system: Bacillus subtilis; assay: Antibacterial activity against Bacillus subtilis DSM 10 assessed as inhibition of bacterial growth incubated for overnight by serial dilution assay
[12] = system: Staphylococcus aureus; assay: Antibacterial activity against Staphylococcus aureus DSM 346 assessed as inhibition of bacterial growth incubated for overnight by serial dilution assay

Measured: Activity

CC(C)[C@H]1CC[C@H](C)c2c(O)c(O)c(C=O)c(C3=C(O)C(=O)C=C(O)C3=O)c21
inactive: all assays above

O=c1cc(O)cc(C2c3c(cc(/C=C/c4ccc(O)c(O)c4)oc3=O)OC2c2ccc(O)c(O)c2)o1 (stereo not given)
inactive: all assays above

CC(C)[C@H]1CC[C@H](C)c2c(O)c(O)c3c(c21)C1=C(OC3)C(=O)C2=C(OCc3c(O)c(O)c4c(c32)[C@@H](C(C)C)CC[C@@H]4C)C1=O
inactive: all assays above

CC(C)[C@H]1CC[C@H](C)c2c(O)c(O)c(C=O)c(C3=C(O)C(=O)C(c4c(C=O)c(O)c(O)c5c4[C@@H](C(C)C)CC[C@@H]5C)=C(O)C3=O)c21
inactive: all assays above

CC(C)[C@H]1CC[C@H](C)c2c(O)c(O)c(C=O)c(C3=C(O)C(=O)C4=C(OCc5c(O)c(O)c6c(c54)[C@@H](C(C)C)CC[C@@H]6C)C3=O)c21
inactive: all assays above

Cc1c(O)c(O)c(C(C)C)c2c1CCC(C(=O)O)=C2
inactive: all assays above

CC(C)[C@H]1CC[C@H](C)c2c(O)c(O)c(CO)c(C3=C(O)C(=O)C4=C(OCc5c(O)c(O)c6c(c54)[C@@H](C(C)C)CC[C@@H]6C)C3=O)c21
inactive: all assays above

CC(C)[C@H]1CC[C@H](C)C2=C1C=C(C(=O)O)CC2
inactive: all assays above

CC1=C(O)C(=O)C(c2c(C=O)c(O)c(O)c3c2[C@@H](C(C)C)CC[C@@H]3C)=C(O)C1=O
inactive: all assays above

O=c1cc(O)cc(/C=C/c2ccc(O)c(O)c2)o1
inactive: all assays above

Source: ChEMBL document CHEMBL5233291, “Calamene-Type Sesqui-, Mero-, and Bis-sesquiterpenoids from Cultures of Heimiomyces sp., a Basidiomycete Collected in Africa” (J Nat Prod, 2023)
